Each cell line was assayed with CCOC(=O)CCNc1cc(N2CCc3ccccc3CC2)nc(-c2ccccn2)n1 [GSK-J4] + C[C@@H](Oc1cc(-c2cnn(C3CCNCC3)c2)cnc1N)c1c(Cl)ccc(F)c1Cl [Crizotinib] (partner 1 µM) (assay: relative viability (nuclei count vs DMSO), 5 days (fraction); higher = more cells survive). Details: first compound 0.5 µM.
Outline: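 Lung cancer cell lines were pin-tool dosed in 1536-well plates on the day after seeding, with either a lone drug or a fixed anchor-drug dose plus five library-drug doses (not always all listed) in √10 steps. Nuclei were counted on 4× images after 5 days. Relative viability is the ratio of treated-well to vehicle-well nuclei counts, with each value a median of duplicate plates.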
PC-14 gave a relative viability of 0.858. NCI-H1666 was tested, and the relative viability was 0.925. Cell Line EKVX has a relative viability of 0.755. In the case of NCI-H1755, the relative viability is reported as 0.841. With NCI-H2023 the relative viability was 0.542. With HCC-78 the relative viability was 0.346. SK-LU-1 showed a relative viability of 0.756. With PC-3 [JPC-3] the relative viability was 0.912. Work on LOU-NH91 yielded a relative viability of 0.756. Cell Line NCI-H647 has a relative viability of 1.01. NCI-H23 showed a relative viability of 0.553. EPLC-272H gave a relative viability of 0.956. With NCI-H2126 the relative viability was 0.99. ChaGo-K-1 gave a relative viability of 1.03. In the case of HCC-44, the relative viability is reported as 0.759. For NCI-H1734, the relative viability was 0.645. NCI-H650 was tested, and the relative viability was 0.568. LK-2 was tested, and the relative viability was 0.256. Cell Line NCI-H2228 has a relative viability of 0.609. For NCI-H1944, the relative viability was 1.14. In the case of HARA, the relative viability is reported as 0.975. Calu-6 gave a relative viability of 0.726. Cell Line COR-L23 has a relative viability of 0.671. Cell Line LCLC-103H has a relative viability of 1.01. LXF-289 was tested, and the relative viability was 0.71. EBC-1 gave a relative viability of 0.191. With A549 the relative viability was 0.691. Cell Line NCI-H1299 has a relative viability of 0.984. Work on IA-LM yielded a relative viability of 0.793. Work on NCI-H1703 yielded a relative viability of 0.736. Work on NCI-H441 yielded a relative viability of 0.74. NCI-H1650 showed a relative viability of 0.847. NCI-H2170 was tested, and the relative viability was 1.09.

Same assay, conditions: first compound 1.581 µM
In the case of PC-14, the relative viability is reported as 0.896. With EKVX the relative viability was 0.883. NCI-H1755 showed a relative viability of 0.821. Cell Line NCI-H2023 has a relative viability of 0.621. HCC-78 showed a relative viability of 0.297. Work on SK-LU-1 yielded a relative viability of 0.762. PC-3 [JPC-3] was tested, and the relative viability was 0.882. For LOU-NH91, the relative viability was 0.711. NCI-H647 gave a relative viability of 0.759. NCI-H2126 gave a relative viability of 0.823. In the case of HCC-44, the relative viability is reported as 0.705. NCI-H1734 showed a relative viability of 0.637. For NCI-H650, the relative viability was 0.594. Work on LK-2 yielded a relative viability of 0.212. With NCI-H2228 the relative viability was 0.345. In the case of NCI-H1944, the relative viability is reported as 1.06. HARA showed a relative viability of 0.962. For Calu-6, the relative viability was 0.618. With COR-L23 the relative viability was 0.567. Work on LCLC-103H yielded a relative viability of 0.811. In the case of LXF-289, the relative viability is reported as 0.768. Cell Line EBC-1 has a relative viability of 0.206. Work on A549 yielded a relative viability of 0.669. NCI-H1299 gave a relative viability of 0.91. In the case of IA-LM, the relative viability is reported as 0.745. NCI-H1703 gave a relative viability of 0.748. Work on NCI-H441 yielded a relative viability of 0.574. Work on NCI-H1650 yielded a relative viability of 0.962. Work on NCI-H2170 yielded a relative viability of 1.14.

Same assay, conditions: first compound 5 µM
Cell Line PC-14 has a relative viability of 0.843. NCI-H1666 gave a relative viability of 1.01. EKVX gave a relative viability of 0.927. For NCI-H1755, the relative viability was 0.891. For NCI-H2023, the relative viability was 0.678. Cell Line HCC-78 has a relative viability of 0.378. SK-LU-1 was tested, and the relative viability was 0.725. Cell Line PC-3 [JPC-3] has a relative viability of 0.952. With LOU-NH91 the relative viability was 0.674. NCI-H647 gave a relative viability of 0.865. With NCI-H23 the relative viability was 0.456. EPLC-272H was tested, and the relative viability was 1.14. NCI-H2126 was tested, and the relative viability was 1. Cell Line ChaGo-K-1 has a relative viability of 0.879. Work on HCC-44 yielded a relative viability of 0.696. With NCI-H1734 the relative viability was 0.576. NCI-H650 was tested, and the relative viability was 0.525. LK-2 was tested, and the relative viability was 0.203. NCI-H2228 showed a relative viability of 0.497. NCI-H1944 gave a relative viability of 1.11. Cell Line Calu-6 has a relative viability of 0.828. For LCLC-103H, the relative viability was 1.18. LXF-289 was tested, and the relative viability was 0.776. EBC-1 gave a relative viability of 0.192. NCI-H1299 gave a relative viability of 0.873. For IA-LM, the relative viability was 0.867. With NCI-H1703 the relative viability was 0.431. With NCI-H441 the relative viability was 0.643. Work on NCI-H1650 yielded a relative viability of 0.862. Cell Line NCI-H2170 has a relative viability of 1.19.

Same assay, conditions: first compound 15.81 µM
Work on PC-14 yielded a relative viability of 0.842. For NCI-H1666, the relative viability was 0.882. EKVX gave a relative viability of 0.91. Work on NCI-H1755 yielded a relative viability of 0.733. NCI-H2023 gave a relative viability of 0.597. SK-LU-1 showed a relative viability of 0.607. With PC-3 [JPC-3] the relative viability was 0.926. In the case of LOU-NH91, the relative viability is reported as 0.695. NCI-H647 showed a relative viability of 0.991. Cell Line NCI-H23 has a relative viability of 0.413. Work on EPLC-272H yielded a relative viability of 0.816. NCI-H2126 gave a relative viability of 0.979. Work on ChaGo-K-1 yielded a relative viability of 1.12. HCC-44 was tested, and the relative viability was 0.825. For NCI-H1734, the relative viability was 0.57. NCI-H650 was tested, and the relative viability was 0.494. In the case of LK-2, the relative viability is reported as 0.191. NCI-H2228 gave a relative viability of 0.535. Cell Line NCI-H1944 has a relative viability of 1.1. HARA was tested, and the relative viability was 0.942. In the case of Calu-6, the relative viability is reported as 0.76. In the case of COR-L23, the relative viability is reported as 0.639. Work on LCLC-103H yielded a relative viability of 0.916. LXF-289 showed a relative viability of 0.806. EBC-1 gave a relative viability of 0.212. A549 showed a relative viability of 0.536. For NCI-H1299, the relative viability was 0.937. Cell Line IA-LM has a relative viability of 0.691. NCI-H1703 gave a relative viability of 0.616. Work on NCI-H441 yielded a relative viability of 0.697. In the case of NCI-H1650, the relative viability is reported as 0.935. For NCI-H2170, the relative viability was 1.09.

Same assay, conditions: first compound 50 µM
PC-14 showed a relative viability of 0.855. NCI-H1666 showed a relative viability of 0.462. For EKVX, the relative viability was 0.889. Work on NCI-H1755 yielded a relative viability of 0.772. NCI-H2023 showed a relative viability of 0.654. HCC-78 gave a relative viability of 0.354. In the case of SK-LU-1, the relative viability is reported as 0.584. Cell Line PC-3 [JPC-3] has a relative viability of 0.814. LOU-NH91 gave a relative viability of 0.712. NCI-H647 gave a relative viability of 1.01. NCI-H23 showed a relative viability of 0.422. EPLC-272H was tested, and the relative viability was 0.915. NCI-H2126 gave a relative viability of 0.917. For ChaGo-K-1, the relative viability was 0.926. HCC-44 gave a relative viability of 0.755. NCI-H1734 was tested, and the relative viability was 0.486. Work on NCI-H650 yielded a relative viability of 0.434. In the case of LK-2, the relative viability is reported as 0.244. Work on NCI-H2228 yielded a relative viability of 0.423. NCI-H1944 was tested, and the relative viability was 1.07. For HARA, the relative viability was 0.662. Calu-6 was tested, and the relative viability was 0.685. For COR-L23, the relative viability was 0.518. With LCLC-103H the relative viability was 0.988. For LXF-289, the relative viability was 0.753. Cell Line EBC-1 has a relative viability of 0.19. A549 gave a relative viability of 0.605. Cell Line NCI-H1299 has a relative viability of 0.923. Cell Line IA-LM has a relative viability of 0.0902. NCI-H1703 showed a relative viability of 0.662. In the case of NCI-H441, the relative viability is reported as 0.775. NCI-H1650 gave a relative viability of 0.721. NCI-H2170 gave a relative viability of 1.11.

Reference: the supplement of paper PMC10307832
